Assay [1] concerns human melanoma cell line (A2058). Kind of assay: Boyden chamber cell migration assay, melanoma cells. It counts as cell-based. As to conditions: for inhibition of ATX-induced stimulation of melanoma cell motility: A2058, 50 nM ATX, 4 hours. The protocol:
(§1) All cell media was supplemented with 10% (v/v) fetal calf serum (FCS) (Gibco) and 1% (v/v) L-glutamine (Gibco) and grown at 37° C. in a humidified atmosphere containing 5% CO2.
The assay chambers are divided by a gelatin-coated membrane with […] pores (NeuroProbe). […] The chambers were then incubated at 37° C. for 4 hours, after which the filters were removed, fixed in 100% methanol, stained with a DiffQuick solution, and mounted onto glass slides. Non-migrating cells were removed from the membrane by scraping the top surface. The cells were quantitated by counting the cell number per high powered field in the various wells. Treatments were compared using a chi squared test.

Assay [2] concerns adenocarcinoma cell motility. To be noted: reported in ref. [40]; read-out: EC50, inhibition of adenocarcinoma cell motility; cited from earlier work.
In the next assay the target is T1, ATX lyso-PLD activity (Homo sapiens, UniProt Q13822).
T1 construct: consistent with a mature, glycosylated form of the enzyme; TEV cleavage site (C); 9-His (C); 6-His (C); made in house; host or cells: High Five insect cells (baculovirus, p-DEST-8)
Kind of assay: Time course assay of ATX lyso-PLD activity (FS-3 fluorescent product) with or without 10 μM compound over 30 minutes. The assay is classed as biochemical. To be noted: 10 μM inhibitor, 30 minute interval, compared with NSC 48300. The protocol:
C. Structure of hexachlorophene, merbromin. Bithionol and their analogs -2,2′-Methylenebis(4-chlorophenol), Eosin Y and RJC 03297, respectively. D. Structure of NSC 48300 and its analogs. […] The assay conditions are 300 nM ATX in the presence or absence of 10 μM compound over 30 minutes.
Inhibitor screen: High throughput screens were performed against two libraries: the GenPlus library of 960 compounds (NINDS Custom Collection, MicroSource Discovery systems) and the NCI Diversity Set (1990 compounds, see http://dtp.nci.nih.gov/branches/dscb/repo_open.html). The screens were performed at the Yale Center for Chemical Genomics utilizing a Tecan Aquarius robot in combination with an Aquarius liquid handler and a Freedom EVO Workstation. A V&P Scientific 384 pin tool transferred small molecules (10 mM stock) from library plates into the optically clear, 384 well assay plates, and an Aquarius liquid handling robot transferred protein into the individual wells. The assays were performed in a total volume of 50 μL in assay buffer (50 mM Tris, 140 mM NaCl, 1 mM MgCl2, and 5 mM CaCl2, pH 8.0). Absorbance of p-nitrophenylate, the product of ATX's PDE activity with pNP-TMP (discussed below) was measured at 405 nm over a period of 12 hours. To monitor lysophospholipase-D activity, the fluorescence of FS-3 (625 nM or 4 μM) was monitored (λex=480 nm, λem=535 nm) in assay buffer over a period of 30 minutes in the presence of 300 nM ATX and 10 μM compound. The assay was evaluated using a statistical Z′ analysis, a quantitative measure to determine assay robustness for single point analysis on a high throughput screening platform. The Z′ analysis was performed from 32 maximum control values (c+) and 32 minimum controls (c−) on each plate. Assays consistently performed with Z′ factors of 0.75-0.85, higher than the minimum 0.5 considered robust.
Inhibition of ATX lyso-PLD activity by several NSC48300 analogs was qualitatively compared in a time course assay by measuring the production of fluorescent product in the presence or absence of 10 µM inhibitor over a 30 minute interval.

In assay [3] the target is T2, ATX (recombinant full-length human ATX), PDE activity (Homo sapiens, UniProt Q13822).
T2 construct: consistent with a mature, glycosylated form of the enzyme; TEV cleavage site (C); 9-His (C); 6-His (C); made in house; host or cells: High Five insect cells (baculovirus, p-DEST-8)
Kind of assay: Steady-state ATX phosphodiesterase (PDE) activity with pNP-TMP, absorbance 405 nm. The assay is classed as biochemical. As to conditions: for Ki: 25° C., read-out: KI (dissociation equilibrium constant for inhibitor binding), ATX PDE activity. The text has this: Protein expression and purification: The full length human NPP2 gene (NCBI accession #BC034961) followed by a C-terminal TEV cleavage site and a 9-His and 6-His purification tag was cloned and transferred into a p-DEST-8 baculovirus shuttle vector (Invitrogen), and bacmid DNA was generated by standard methods. The DNA sequence and correct transposition of the genes was verified by PCR, and recombinant full-length human ATX was expressed in High Five insect cells using standard methods. Three days post infection, the supernatant was adjusted to a final concentration of 50 mM Tris pH 8.0, 5 mM CaCl2, and 1 mM NiSO4 and stirred for 10 min. at room temperature. The resulting precipitant was removed by centrifugation (4,420×g for 30 minutes) and filtration ([…]), and the supernatant was concentrated using a Pall concentration system to approximately 250 mL. The cell media was passed over a nickel affinity column (5 mL, Fastflow resin), equilibrated in binding buffer (20 mM Tris pH 8.0, 300 mM NaCl, 20 mM imidazole, and 20% ethylene glycol) at 4° C., washed with 10 column volumes of binding buffer, and then eluted with binding buffer supplemented with 300 mM imidazole. Purified ATX was concentrated to approximately 10 mg mL^−1, and dialyzed into the appropriate assay buffer.
Steady-state enzyme assays: Phosphodiesterase activity of ATX (75-100 nM) was measured by absorbance (λ=405 nm) on a SpectraMax 250 plate reader at 25° C. with the substrate pNP-TMP [36]. Reactions were run in assay buffer containing 10% DMSO (v/v) and 1 mg mL^−1 BSA (hexachlorophene, merbromin, and bithionol) or without BSA (NSC 48300, 2,2′-Methylenebis(4-chlorophenol), eosin Y, and RJC 03297) in a total volume of […]. The uncatalyzed reaction rate was ≦10^−7 s^−1 (data not shown).
The steady-state rates (v) of product formation were obtained by fitting the time courses of absorbance or fluorescence change to linear functions. Absorbance units were converted to p-nitrophenylate concentration using ε405 of 18.5 mM^−1 cm^−1 [39] and a measured path length of 0.494 cm. FS-3 hydrolysis product formation was quantitated in arbitrary fluorescence units.
(§2) The Michaelis constants (KM) and the catalytic turnover rate constants (kcat) were obtained by fitting the [substrate]-dependence of v to a rectangular hyperbola in the form of the Briggs-Haldane equation: […]
(§3) in which [S] is [pNP-TMP] or [FS-3]. Inhibitors were treated as reversible inhibitors and analyzed according to the general steady-state linear enzyme inhibitor scheme:
(§4) in which E is ATX, S is pNP-TMP or FS-3 substrate, P are the hydrolysis products, and K1 is the dissociation equilibrium constant for inhibitor binding. The values of α and K1 were obtained by fitting the steady-state rates of product formation (v) to the general inhibition equation: […]
(§5) in which [I] is the inhibitor concentration, kcat is the maximum catalytic turnover rate, and KS is the Michaelis constant of the substrate obtained in the absence of inhibitor.
(§6) The type of inhibition (competitive, noncompetitive, or uncompetitive) depends on the value of α.
(§7) The type of inhibition was assigned if the difference between the r^2 values of the fits to the general inhibition equation (Eq 2) and the specific inhibition (i.e. competitive, noncompetitive or uncompetitive) equations was less than 0.01.

The subject of the next assay is A2058 melanoma cells. Kind of assay: Matrigel cell invasion assay, melanoma cells. The assay is classed as cell-based, human. As to conditions: for inhibition of ATX-induced stimulation of melanoma cell invasion: A2058, 50 nM ATX. On the procedure:
as §1
Cell invasion assays: Matrigel matrix (1 mg/ml, Becton Dickenson) was added to […] gelatin-coated membranes placed in cell culture inserts (BD Falcon) and allowed to set for 24 hours at room temperature. The inserts were placed into companion 24 well plates (BD Falcon), and chemo-attractants (ATX ±inhibitors) and/or controls were added to the bottom of the wells. Cells (1×10^6) were added to the inserts and incubated for 3 hours at 37° C. Following incubation, the inserts were removed, fixed in 100% methanol, stained with DiffQuick solution, and mounted on glass slides. Non-invading cells were removed by scraping away the matrigel, and migrating cells were quantitated by counting cell number per high-powered field.

Assay [4] addresses T3, ATX (recombinant full-length human ATX), lysoPLD activity (Homo sapiens, UniProt Q13822).
T3 construct: consistent with a mature, glycosylated form of the enzyme; TEV cleavage site (C); 9-His (C); 6-His (C); made in house; host or cells: High Five insect cells (baculovirus, p-DEST-8)
Kind of assay: Steady-state ATX lysoPLD activity with fluorescent LPC analogue FS-3. It counts as biochemical. To be noted: for type of inhibition of ATX lysoPLD activity / inhibition of ATX lysoPLD activity by GenPlus screen inhibitor analogs: substrate FS-3; for Ki: substrate FS-3, 37° C. On the procedure:
Protein expression and purification: The full length human NPP2 gene (NCBI accession #BC034961) followed by a C-terminal TEV cleavage site and a 9-His and 6-His purification tag was cloned and transferred into a p-DEST-8 baculovirus shuttle vector (Invitrogen), and bacmid DNA was generated by standard methods. […] Three days post infection, the supernatant was adjusted to a final concentration of 50 mM Tris pH 8.0, 5 mM CaCl2, and 1 mM NiSO4 and stirred for 10 min. at room temperature. […] Purified ATX was concentrated to approximately 10 mg mL^−1, and dialyzed into the appropriate assay buffer.
Fluorescence was measured (λex=485 nm, λem=520 nm) on a SpectraMax Gemini XPS at 37° C. under buffer conditions similar to the PDE assays but lacking BSA. […] The spontaneous reaction rates were subtracted from the enzyme catalyzed rates.
The steady-state rates (v) of product formation were obtained by fitting the time courses of absorbance or fluorescence change to linear functions. […] FS-3 hydrolysis product formation was quantitated in arbitrary fluorescence units.
as §2, §3, §4, §5, §6, §7

Setting [5] is: ATX-dependent hydrolysis, fit to Eq. 1.

Several values for one entry are separate records, joined by “and”; a condition that tells them apart may be missing. Identical values can stand only once. Like-named read-outs stand apart in the source and are kept apart here. A value given as a limit tells only on which side of the number the result lay.

As for `Cc1ccc2c(c1)C(=O)C1(O)CCN(c3ccccc3)C1=N2` (stereo not shown) [Blebbistatin], the EC50 is 27 µM in assay [1] (A2058, 75 nM LPA, read-out: EC50, inhibition of cell motility with addition of LPA); 54 µM in assay [1] (A2058, in the presence of 50 nM ATX, read-out: EC50, inhibition of ATX-induced cell motility); ~50 µM in assay [2].
In the case of `O=[As](O)(O)c1ccc(-c2ccc([As](=O)(O)O)cc2)cc1` [NSC 13792], the “qualitative effect of structural change on inhibition of ATX lyso-PLD activity” value at ATX lyso-PLD activity is “eliminates inhibition”.
Turning to `COC(=O)c1ccc(Cc2ccc(C(=O)OC)cc2)cc1` [NSC 86629], the “qualitative effect of structural change on inhibition of ATX lyso-PLD activity” value at ATX lyso-PLD activity was “eliminates inhibition”.
Consider `O=C([O-])c1ccccc1-c1c2cc(Br)c(=O)cc-2oc2[c]([Hg+])c([O-])c(Br)cc12.[Na+].[Na+].[OH-]` [Merbromin], for which, in assay [3] (substrate pNP-TMP), the “type of inhibition of ATX PDE activity” value is listed as “noncompetitive inhibition” and the inhibitory constant (Ki) came to 43 µM. In addition, the “inhibition of ATX-induced stimulation of melanoma cell motility” value in assay [1] is given as “inhibited in a dose-dependent manner”. Also, the “inhibition of ATX-induced stimulation of melanoma cell invasion” value in the assay on A2058 melanoma cells is given as “inhibited in a dose-dependent manner”.
For the compound lysophosphatidic acid [LPA], the “increase in number of invading cells per hpf” value in the assay on A2058 melanoma cells (A2058, ATX (50 nM) or LPA (75 nM)) was found to be 3.5 fold.
Regarding Fluorescent Substrate-3 [FS-3], the Km in assay [4] (setting [5]) was 4.5 µM.
With `Oc1c(Cl)cc(Cl)c(Cl)c1Cc1c(O)c(Cl)cc(Cl)c1Cl` [Hexachlorophene], in assay [3] (substrate pNP-TMP), the “type of inhibition of ATX PDE activity” value is recorded as “competitive inhibition”, the “α value from general steady-state inhibition equation (Eq. 2)” value is reported as > 45 and the Ki was 15 µM. In assay [4], the “type of inhibition of ATX lysoPLD activity” value is on record as “competitive inhibitor” and the Ki turned out to be 68 µM. Also, the “inhibition of ATX-induced stimulation of melanoma cell motility” value in assay [1] is on record as “inhibited in a dose-dependent manner”. In the assay on A2058 melanoma cells, the “inhibition of ATX-induced stimulation of melanoma cell invasion” value is “inhibited in a dose-dependent manner”.
In the case of `O=C1OC2(c3ccccc31)c1cc(Br)c(O)c(Br)c1Oc1c2cc(Br)c(O)c1Br` [Eosin Y], in assay [3] (substrate pNP-TMP), the “type of inhibition of ATX PDE activity” value was “competitively” and the Ki is 9.6 µM. Besides, in assay [4], the “inhibition of ATX lysoPLD activity by GenPlus screen inhibitor analogs” value was “inhibits ATX lysoPLD activity”, the “type of inhibition of ATX lysoPLD activity” value is “noncompetitive” and the Ki worked out at 116 µM.
On to `Oc1ccc(Cl)cc1Cc1cc(Cl)ccc1O` [2,2′-Methylenebis(4-chlorophenol)], for which, in assay [3] (substrate pNP-TMP), the “type of inhibition of ATX PDE activity” value is given as “noncompetitively” and the Ki was 104 µM. Besides, the “inhibition of ATX lysoPLD activity by GenPlus screen inhibitor analogs” value in assay [4] is recorded as “only Eosin Y (an analogue of merbromin) inhibits ATX lysoPLD activity”.
Take `Cc1cn([C@H]2C[C@H](O)[C@@H](COP(=O)(O)Oc3ccc([N+](=O)[O-])cc3)O2)c(=O)[nH]c1=O` [pNP-TMP, p-Nitrophenyl 5′-thymidine monophosphate]: in assay [3] (setting [5]), the Km turned out to be 1400 µM; the “kcat for pNP-TMP hydrolysis” value is 1.6 s^−1 and 1.6 (±0.1) s^−1.

The values are drawn from patent US20110110886A1, “SMALL MOLECULE INHIBITORS OF AUTOTAXIN AND METHODS OF USE” (Yale University, priority 2008, published 2011).
